Where a name gives a salt, the structure may show the parent alone.
Biological target: T1, rNHE3 (Rattus norvegicus, UniProt P26433)
T1 construct: expressed in transfected cells
Test: recovery of intracellular pH (pHi) after acidification, BCECF fluorescence
Format: cell-based
Conditions: pH recovery recorded for three minutes with NHE3; bicarbonate-free conditions
Method: In this test, the recovery in the intracellular pH (pHi) after an acidification is ascertained, which is initiated if the NHE is capable of functioning, even under bicarbonate-free conditions. For this purpose, the pHi was determined using the pH-sensitive fluorescent dye BCECF (Calbiochem, the precursor BCECF-AM is employed). The cells were initially loaded with BCECF. The BCECF fluorescence was determined in a “Ratio Fluorescence Spectrometer” (Photon Technology International, South Brunswick, N.J., USA) at excitation wavelengths of 505 and 440 nm and an emission wavelength of 535 nm and converted into the pHi using calibration curves. The cells were incubated in NH4Cl buffer (pH 7.4) (NH4Cl buffer: 115 mM NaCl, 20 mM NH4Cl, 5 mM KCl, 1 mM CaCl2, 1 mM MgSO4, 20 mM Hepes, 5 mM glucose, 1 mg/ml BSA; a pH of 7.4 was adjusted with 1 M NaOH) even during the BCECF loading. The intracellular acidification was induced by adding 975 μl of an NH4Cl-free buffer (see below) to 25 μl aliquots of the cells incubated in NH4Cl buffer. The subsequent rate of pH recovery was recorded for two minutes with NHE1, five minutes with NHE2 and three minutes with NHE3. To calculate the inhibitory potency of the tested substances, the cells were initially investigated in buffers with which a complete or absolutely no pH recovery took place. For complete pH recovery (100%), the cells were incubated in Na^+-containing buffer (133.8 mM NaCl, 4.7 mM KCl, 1.25 mM CaCl2, 1.25 mM MgCl2, 0.97 mM Na2HPO4, 0.23 mM NaH2PO4, 5 mM Hepes, 5 mM glucose, a pH of 7.0 is adjusted with 1 M NaOH). To determine the 0% value, the cells were incubated in an Na^+-free buffer (133.8 mM choline chloride, 4.7 mM KCl, 1.25 mM CaCl2, 1.25 mM MgCl2, 0.97 mM K2HPO4, 0.23 mM KH2PO4, 5 mM Hepes, 5 mM glucose, a pH of 7.0 is adjusted with 1 M NaOH). The substances to be tested were made up in the Na^+-containing buffer. The recovery of the intracellular pH at each test concentration of a substance was expressed as a percentage of the maximum recovery. The IC50 value for the particular substance for the individual NHE subtypes was calculated from the pH recovery percentages using the Sigma-Plot program.

T1 sequence (P26433 29-831): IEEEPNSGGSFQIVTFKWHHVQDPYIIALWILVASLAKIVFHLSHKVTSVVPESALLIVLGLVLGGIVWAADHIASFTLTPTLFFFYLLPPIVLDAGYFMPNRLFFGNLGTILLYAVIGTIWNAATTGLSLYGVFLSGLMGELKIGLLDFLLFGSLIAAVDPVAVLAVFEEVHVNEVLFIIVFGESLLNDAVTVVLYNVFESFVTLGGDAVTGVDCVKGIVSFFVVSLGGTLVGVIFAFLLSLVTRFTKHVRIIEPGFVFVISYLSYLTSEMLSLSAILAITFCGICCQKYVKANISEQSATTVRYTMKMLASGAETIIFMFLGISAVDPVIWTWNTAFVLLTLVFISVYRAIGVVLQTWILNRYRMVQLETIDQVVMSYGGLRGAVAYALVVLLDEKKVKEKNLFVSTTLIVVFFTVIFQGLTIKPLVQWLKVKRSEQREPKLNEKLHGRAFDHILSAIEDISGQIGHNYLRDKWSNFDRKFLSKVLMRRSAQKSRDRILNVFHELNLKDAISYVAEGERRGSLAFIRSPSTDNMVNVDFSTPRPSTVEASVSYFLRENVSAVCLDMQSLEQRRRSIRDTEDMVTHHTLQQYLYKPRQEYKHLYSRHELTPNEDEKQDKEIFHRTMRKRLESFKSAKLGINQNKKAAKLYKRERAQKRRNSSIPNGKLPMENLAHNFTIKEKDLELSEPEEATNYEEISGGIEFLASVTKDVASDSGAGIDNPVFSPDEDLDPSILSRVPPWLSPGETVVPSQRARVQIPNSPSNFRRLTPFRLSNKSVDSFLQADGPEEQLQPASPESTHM

| Structure (SMILES) | IC50 [µM] |
| --- | --- |
| CC(=O)Nc1ccc(C2C[N+](C)(C)Cc3c(Cl)cc(Cl)cc32)cc1 (single isomer, unassigned; (+)) [Example 3c, (+)-4-(4-Acetylaminophenyl)-6,8-dichloro-2,2-dimethyl-1,2,3,4-tetrahydroisoquinolinium chloride] | 0.43 |
| C[N+]1(C)Cc2c(Cl)cc(Cl)cc2C(c2ccccc2)C1 (centres unmarked) [Example 1, 6,8-Dichloro-2,2-dimethyl-4-phenyl-1,2,3,4-tetrahydroisoquinolinium, trifluoroacetate] | 0.23 |
| C[N+]1(C)Cc2c(Cl)cc(Cl)cc2C(c2ccc(S(N)(=O)=O)cc2)C1 (centres unmarked) [Example 2, 6,8-Dichloro-2,2-dimethyl-4-(4-sulfamoylphenyl)-1,2,3,4-tetrahydroisoquinolinium, Trifluoroacetate] | 0.9 |
| CC(=O)Nc1ccc(C2C[N+](C)(C)Cc3c(Cl)cc(Cl)cc32)cc1 (centres unmarked) [Example 3a, 4-(4-Acetylaminophenyl)-6,8-dichloro-2,2-dimethyl-1,2,3,4-tetrahydroisoquinolinium iodide] | 0.67 |
| C[N+]1(C)Cc2c(Cl)cc(Cl)cc2C(c2ccc(N)cc2)C1 (centres unmarked) [Example 4, 4-(4-Aminophenyl)-6,8-dichloro-2,2-dimethyl-1,2,3,4-tetrahydroisoquinolinium chloride, hydrochloride] | 0.03 |

— US6703405B2, “Substituted 4-phenyltetrahydroisoquinolinium salts, process for their preparation, their use as a medicament, and medicament containing them” (Aventis Pharma Deutschland GmbH, priority 2001, dated 2004)
